Measured values from patent US5672707A (priority 1991, dated 1997).

Experiments:
[1] = molecular target: T1, Acetylcholinesterase, enzyme from human erythrocytes (Homo sapiens, UniProt P22303); test: Acetylcholinesterase inhibition, spectrophotometric technique of Ellman; assay type: biochemical; settings: Acetylcholinesterase inhibition IC50 (M), enzyme from human erythrocytes; Table 5
T1 construct: on the enzyme from human erythrocytes; from tissue; host or cells: human erythrocytes
Procedure: Acetylcholinesterase inhibition under the action of preparations was assessed by the spectrophotometric technique of Ellman on the enzyme from human erythrocytes.

mice [2] = test: Psychotropic activity test: motor activity; assay type: in vivo; settings: intraperitoneally, dose 1/20 of LD
in vivo = settings: intraperitoneal injection, Table 5; for LD50: in vivo, ip, read-out: LD50 (mg/kg) by Kerber
Procedure: (§1) Psychoneurotropic activity of the declared compounds and their influence on learning and memory were observed using unbred male (18-20 g) mice and 180-200 g) rats, held at standard conditions (room temperature 21°-22° C., 12-hours lighting schedule, food and water ad libitum).
Acute toxicity was studied by the method of Kerber with intra peritoneal drug injection.

mice [3] = test: Psychotropic activity test: arecoline induced hyperkynesis; assay type: in vivo; settings: intraperitoneally, dose 1/20 of LD
rats = test: Passive avoidance test in normal rats, 50% acquisition; assay type: in vivo; settings: for change in vivo at 0.1 mg/kg: Rattus norvegicus, ip, 20 min, read-out: Increase of the number of correct trails (% to control). Passive avoidance test (rats); for change in vivo at 0.1 mg/kg / Increase of the number of correct trails (% to control). Passive avoidance test (rats): rats, 0.1 mg/kg i.p. 20 min before training, piracetam 250 mg/kg 60 min before training
Procedure: as §1
The influence of drugs on reflex conditioning in rats was studied by the passive avoidance test in conditions of 50% acquisition. The effect of the compound was estimated by the increase of the relative number of learned animals with respect to that of control group. […] The other reference drug--noothropic agent piracetam--was given in the dose 250 mg/kg 60 min before training. Amnestic syndrome was stimulated by 20 days application of Sc at the daily dose of 1 mg/kg intraperitoneally. […] The passive avoidance test was performed within 24 hours after the last application of test preparations.

mice [4] = test: Step-down test, scopolamine induced amnesia; assay type: in vivo
Procedure: as §1

rat adipocytes [5] = test: Lipid content in incubation medium after incubation of adipocytes; assay type: cell-based; settings: incubation medium; Table 12
Procedure: (§2) Lipid regulative activity of the declared compounds--derivatives of 9-amino acridine--were evaluated in vitro[…] using rat adipocytes. Adipocytes were separated from adipose tissue of testis appendages of adult male rats. Lipid composition analysis was performed by the method of thin-layer chromatography.
(§3) Quantitative analysis of phospholipids (PL), mono- and diacylglycerides (MDG), triacylglycerides (TG), free fatty acids (FFA), free cholesterol (FCL), and methyl esters of fatty acids (MEFA) was performed by the method of spectrophotometry.

rat adipocytes [6] = test: Lipid composition of adipocytes after incubation with compounds; assay type: cell-based; settings: for FFA/TG in adipocytes / PL/CL in adipocytes / PL/TG in adipocytes: cells, Table 11; for FFAc/FFAm / PLc/PLm: distribution between cells and incubation medium, Table 13
Procedure: as §2, §3

T1 sequence (P22303-2 with tags, fused parts or gaps limits assumed): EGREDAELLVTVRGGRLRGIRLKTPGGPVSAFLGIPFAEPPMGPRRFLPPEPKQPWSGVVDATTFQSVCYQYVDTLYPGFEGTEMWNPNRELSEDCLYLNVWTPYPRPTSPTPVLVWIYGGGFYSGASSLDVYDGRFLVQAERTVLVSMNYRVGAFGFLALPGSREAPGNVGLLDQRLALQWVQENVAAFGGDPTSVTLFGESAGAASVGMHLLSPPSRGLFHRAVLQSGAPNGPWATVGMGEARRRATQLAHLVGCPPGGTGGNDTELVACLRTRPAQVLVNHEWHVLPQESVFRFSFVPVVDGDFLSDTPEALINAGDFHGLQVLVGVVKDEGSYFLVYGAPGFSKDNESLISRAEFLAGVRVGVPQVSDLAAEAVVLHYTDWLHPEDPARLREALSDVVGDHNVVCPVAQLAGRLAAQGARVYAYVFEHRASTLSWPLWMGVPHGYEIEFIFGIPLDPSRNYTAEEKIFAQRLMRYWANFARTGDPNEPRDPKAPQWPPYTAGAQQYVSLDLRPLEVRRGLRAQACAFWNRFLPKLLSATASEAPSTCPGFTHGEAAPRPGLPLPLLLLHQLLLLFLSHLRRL

Row | SMILES | IC50 [1] [M] | Motor activity increment (% to control) (mice [2]) | LD50 (in vivo) [mg/kg] | Increase of duration of arecoline induced hyperkynesis (% to control) (mice [3]) | change in vivo at 0.1 mg/kg (rats) [%] | LD50 (mg/kg) by Kerber (in vivo) [mg/kg] | Performance of normal rats in passive avoidance test (rats; normal rats) | Increase of the number of correct trails (% to control). Passive avoidance test (rats) (rats) | Antiamnestic activity in Step-down test (mice [4]) | Antiamnestic activity in Step-down test (% of mice with latency > cut off) (mice [4]) | FFA/TG in incubation medium (rat adipocytes [5]) | PL/CL in incubation medium (rat adipocytes [5]) | PL/TG in incubation medium (rat adipocytes [5]) | FFA/TG in adipocytes (rat adipocytes [6]) | PL/CL in adipocytes (rat adipocytes [6]) | PL/TG in adipocytes (rat adipocytes [6]) | FFAc/FFAm (rat adipocytes [6]) | PLc/PLm (rat adipocytes [6]) | Improving learning and memory compared with amiridine and piracetam (rats; normal rats, passive avoidance test)
1 | Cc1cccc2c(N)c3c(nc12)CC(C)(C)CC3=O [IVl] | 6.3e-07 | 57 % to control | 617 ± 23.7 | 0 % to control | 0 |  |  |  |  |  |  |  |  |  |  |  |  |  | 
2 | CCCCNc1c2c(nc3ccccc13)CC(C)(C)C=C2 [VIIc] | 6e-07 | 20 % to control | 33.3 ± 4.4 | 15 % to control | 25 |  |  |  |  |  |  |  |  |  |  |  |  |  | 
3 | CC1(C)C=Cc2c(nc3ccccc3c2NCc2ccccc2)C1 [VIIi] |  | 20 % to control |  | 15 % to control |  | 500 | statistically significantly improved performance of normal rats | 35 % to control | pronounced antiatonestic activity, comparable with that of amiridine and tacrine | 25 % of mice |  |  |  |  |  |  |  |  | 
4 | CC1(C)C=Cc2c(nc3ccccc3c2NCc2ccccc2)C1 [VIIj] |  |  |  |  |  |  |  |  |  |  | 1.07 | 0.89 | 0.81 | 1.00 | 0.83 | 0.86 | 0.93 | 1.08 | 
5 | CC1(C)C=Cc2c(nc3ccccc3c2NCc2ccccc2)C1 [VIIk] |  | 20 % to control |  | 20 % to control |  | 90.5 ± 8. |  | 25 % to control |  |  | 1.10 | 0.96 | 0.84 | 0.93 | 0.61 | 0.58 | 0.95 | 0.78 | 
6 | CC1(C)C=Cc2c(nc3ccccc3c2NCc2ccccc2)C1 [VIIl] |  | 10 % to control |  | 15 % to control |  | 116.7 ± 10.9 |  | 40 % to control |  |  | 1.00 | 0.91 | 0.77 | 1.00 | 0.75 | 0.78 | 0.96 | 0.97 | 
7 | CC1(C)Cc2nc3ccccc3c(N)c2C(O)C1 (stereo not drawn) [VIb] | 1.2e-06 | 40 % to control | 63.3 ± 8.8 | 66 % to control | 20 |  |  |  |  | 0 % of mice |  |  |  |  |  |  |  |  | 
8 | CC1(C)Cc2nc3ccccc3c(NCc3ccccc3)c2C(O)C1 (stereo not drawn) [VIe, 9-benzylamino-3,3-dimethyl-1,2,3,4-tetrahydroacridine-1-ol] | 1.3e-06 | 64 % to control | 50 ± 8.6 | 15 % to control | 0 |  |  |  |  |  |  |  |  |  |  |  |  |  | 
9 | CC1(C)Cc2nc3ccccc3c(NCc3ccc(Cl)cc3)c2C(O)C1 (stereo not drawn) [VIg] | 3e-06 | 40 % to control | 80 ± 2.7 | 36 % to control | 0 |  |  |  |  |  |  |  |  |  |  |  |  |  | 
10 | CCCCNc1c2c(nc3ccccc13)CC(C)(C)CC2=O [Vaa] |  | 26 % to control |  | 25 % to control |  | 650.0 ± 11.3 |  | 15 % to control | pronounced antiatonestic activity, comparable with that of amiridine and tacrine | 25 % of mice | 0.92 | 0.71 | 0.55 | 0.94 | 0.63 | 0.58 | 1.01 | 1.04 | 
11 | Cc1ccc(CNc2c3c(nc4ccccc24)CC(C)(C)CC3=O)c(C)c1 [Vd] | 1e-05 | 90 % to control | > 1000 | 0 % to control | 50 |  | statistically significantly improved performance of normal rats |  |  | 20 % of mice |  |  |  |  |  |  |  |  | as effective in improving learning and memory as amiridine and piracetam
12 | CNc1c2c(nc3ccccc13)CC(C)(C)CC2=O [Vh] | 4e-07 | 40 % to control | 65.8 ± 4.8 | 20 % to control | 0 |  |  |  |  |  |  |  |  |  |  |  |  |  | 
13 | CCNc1c2c(nc3ccccc13)CC(C)(C)CC2=O [Vj] | 1.7e-06 | 59 % to control | 73.3 ± 8.6 | 20 % to control | 0 |  |  |  |  |  |  |  |  |  |  |  |  |  | 
14 | CCCNc1c2c(nc3ccccc13)CC(C)(C)CC2=O [Vl] | 3e-06 | 74 % to control | 283 ± 35.7 | 30 % to control | 0 |  |  |  |  |  |  |  |  |  |  |  |  |  | 
15 | CC(C)Nc1c2c(nc3ccccc13)CC(C)(C)CC2=O [Vn] | 6e-06 | 76 % to control | 70.2 ± 7.3 | 0 % to control | 0 |  |  |  |  |  |  |  |  |  |  |  |  |  | 
16 | CC(C)CNc1c2c(nc3ccccc13)CC(C)(C)CC2=O [Vq] | 2e-06 | 75 % to control | 158 ± 21.9 | 0 % to control | 0 |  |  |  |  |  |  |  |  |  |  |  |  |  | 
17 | CCN(CC)CCNc1c2c(nc3ccccc13)CC(C)(C)CC2=O [Vr] | 5e-05 | 0 % to control | 135 ± 8.2 | 26 % to control | 0 |  |  |  |  |  |  |  |  |  |  |  |  |  | 
